Data taken from article PMC5510229, “BCAT1 controls metabolic reprogramming in activated human macrophages and is associated with inflammatory diseases” (Nature Communications, 2017).

Key:
[1] = In vivo pharmacokinetics; design: species or system ICR mice; settings: ICR, mouse, plasma
Protocol: The experiment was performed by Eurofins Panlabs Inc. Briefly, fasting pharmacokinetic parameters were obtained after administration of 125 mg kg^−1 i.v. or 500 mg kg^−1 p.o ERG240 to ICR mice and blood collection at 3, 10, 30, 60, 120 and 240 min (i.v. dosing) or 10, 30, 60, 120, 240 and 360 min (p.o. dosing). Each animal was subjected to a single blood draw and 3 animals per time point were used. Parameters were obtained from non-compartmental analysis of the plasma data using WinNonlin. Experimental details are provided in Supplementary Methods. […]
In v ivo pharmaco kinetics
ICR mice that have been fasted overnight were administered 125 mg/kg ERG240 i.v. or 500 mg/kg ERG240 p.o. At predetermined time points, mice were sedated under general inhalant anaesthesia (3 % isoflurane) and 300- 400 µL of blood were collected in tubes coated with lithium heparin by cardiac puncture . The plasma was harvested after cent rifugation and kept frozen at - 20 °C until further processing. Proteins present in the plasma were precipitated b y acetonitrile. Specificall y, 50 µL of plasm a samples were trans ferred to a 9 6-well plate and 10 µL of a acetonitrile/water 50/50 (v/v) solution was added to each well. At this point, 150 μ L of 1 ng/μ L of aspirin in acetonitrile were also added as internal standard. After sample mixing and centrifugation, 100 µL supernatant were withdrawn from each well and mixed with […] w ater for HP LC -MS/MS analysis. Sample anal ysis b y HPLC -MS/MS employed a Agilent Poroshell 120 EC-C18 column 2.7μm (3.0 x 50mm) and a gradient elution with two mobile phases (A: acetonitrile/water/formic acid 99/1/0.02 (v/v/v);
B:acetonitrile/water/formic acid 1/99/0.02 (v/v/v)). A volume of […] of sample were injected into the column and the sample concentration was determined by employing calibration curves that were generated prior to sample anal ysis b y spiking drug- free plasma with specified concentrations of ERG240. The quantitation range was 5- 10000 ng/mL.
Following sample analysis, plots of plasma concentration of ERG240 vs. time were constructed. Fundamental pharmacokinetic parameters were calculated from the non-compartmental analysis of the plasma data using WinNonlin. […]
Pannus: 0=Normal; 1=Minimal infiltration of pannus in cartilage and subchondral bone; 2=Mild infiltration of pannus in cartilage with marginal zone destruction of hard tissue in affected joints; 3=Moderate infiltration of pannus in cartilage with moderate hard tissue destruction in affected joints; 4=Marked infiltration of pannus in cartilage with marked destruction of joint architecture, most joints; 5=Severe infiltration associated with total or near total destruction of joint architecture, all joints. Cartilage Damage: 0=Normal;

[2] = test system: mouse bone marrow derived macrophages (BMDMs); assay: BMDM cell number (CyQuant); format: cell-based, C57BL/6 mouse; settings: treatment for 24 h
Text: Figure 6 ERG240 treatment results in reduced macrophage infiltration in CIA and crescentic glomerulonephritis. (a) Inhibition of murine BMDM migration in vitro in the presence of different concentrations of ERG240 by transwell migration assay (left panel, results are presented as the average of four experiments). The drug had no effect on cell viability (right panel, results are presented as the average of three experiments). (b) IHC analysis of CIA joints for expression of F4/80. Representative images show F4/80+ cells (indicated with an arrow). F4/80+ cell quantification is shown on the right panel. (c) Representative images showing glomerular ED1 (rat CD68)-positive cells in ERG240 treated animals following NTN. Percentage of glomerular ED1-positive cell quantification is shown on the right panel. Error bars are s.e.m. […]
The migration of BMDMs was assessed using a modified Bo yden chamber methodology. […]
To determine the effect of ERG240 on the total number of BMDMs, cell s were plated onto a 96-well plate at a density of 5,000 cells per well in complete media and allowed to adhere overnight. The cells were then exposed to various drug concentrations overnight and the cell population was quantified with CyQuant Cell Proliferation kit (Life Technologies) using triplicates, in two independent experiments. For hMDMs, cell viability was determined using the alamarBlue® Assa y (Invitrogen). […]

[3] = Dose-escalating toxicity study; format: in vivo; settings: oral or intraperitoneal administration, doses up to 2 g kg^−1
[4] = target: T1, recombinant human BCAT2 (Homo sapiens, UniProt O15382); assay: BCAT2 aminotransferase enzymatic assay (continuous fluorometric); format: biochemical
T1 construct: purchased Abcam
T1 sequence (O15382 28-392): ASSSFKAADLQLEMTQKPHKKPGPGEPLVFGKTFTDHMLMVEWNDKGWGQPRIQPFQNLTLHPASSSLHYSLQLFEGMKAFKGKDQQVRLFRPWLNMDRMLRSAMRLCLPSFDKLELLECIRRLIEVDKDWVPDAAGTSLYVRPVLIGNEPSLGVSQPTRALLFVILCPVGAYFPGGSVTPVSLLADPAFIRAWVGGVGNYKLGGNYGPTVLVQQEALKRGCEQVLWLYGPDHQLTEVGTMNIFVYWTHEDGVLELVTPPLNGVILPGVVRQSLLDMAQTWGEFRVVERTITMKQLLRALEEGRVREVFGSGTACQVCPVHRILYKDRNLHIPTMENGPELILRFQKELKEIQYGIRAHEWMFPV

CC(=O)C(C)CCC(=O)O (stereo not drawn) [ERG240]
AUC(0-inf) ([1]; IV 125 mg kg^−1, mice): 149 µg·h/mL | AUC(0-t) ([1]; IV 125 mg kg^−1, mice): 149 µg·h/mL | C0 ([1]; IV 125 mg kg^−1, mice): 231 µg/mL | MRT ([1]; IV 125 mg kg^−1, mice): 33 min | clearance ([1]; IV 125 mg kg^−1, mice): 45.6 mL/min/kg | half-life ([1]; IV 125 mg kg^−1, mice): 7.2 min | AUC(0-inf) ([1]; oral 500 mg kg^−1, mice): 794 µg·h/mL | AUC(0-t) ([1]; oral 500 mg kg^−1, mice): 794 µg·h/mL | Cmax ([1]; oral 500 mg kg^−1, mice): 351 µg/mL | MRT ([1]; oral 500 mg kg^−1, mice): 74.4 min | Tmax ([1]; oral 500 mg kg^−1, mice): 1 h | bioavailability ([1]; oral 500 mg kg^−1, mice, read-out: F (bioavailability)): 100% | BMDM cell numbers [2]: did not affect cell numbers | adverse effects in dose-escalating toxicity study [3]: no major adverse effects | inhibition of BCAT2 [4]: no inhibition
